The source of these data is a melting point compilation (Tetko et al.; mined from patent text by program, amines drawn as free bases though some values may be those of a salt).

As usually defined, the melting point is the temperature, or range, at which the solid turns liquid.

In turn, `COc1ccc2cc(-c3ccc(C(=O)O)cc3)ccc2c1` yielded a melting point of 288 to 289 °C. On to `COc1cc(Nc2nccc(-c3ccc(N4CCNC(CO)C4)nc3)n2)cc(OC)c1OC` (configuration not stated), for which the melting point was in the range of 118 to 119 °C. Regarding `N#Cc1ccc2c(c1)C(=C(Cl)Cl)OC(C(Cl)(Cl)Cl)O2` (configuration not stated), the melting point fell in the range of 125 to 126 °C. As for `COC(=O)CCC(C)(C)c1ccc(OC)c(NC(=O)C[C@H]2O[C@H](c3cccc(OC)c3OC)c3cc(Cl)ccc3N(CC(C)(C)COC(C)=O)C2=O)c1`, the figure is 157 to 158 °C; as for `[O-][N+]1=Cc2cccc3c2C(C1)c1ccccc1CC3` (configuration not stated), 156 to 158 °C; as for `CN(C(=O)Cc1cccc2[nH]ccc12)C1c2ccccc2CC1N1CCCC1` (configuration not stated), 202 to 204 °C. Then `CCc1nc(/C=C/c2cn(-c3ccccc3)nc2OCc2cc(OCc3nc(-c4ccc(CC(=O)O)cc4)oc3C)no2)cs1`, with 156 to 158 °C. Compound `O=c1[nH]c(=O)c2cc(S(=O)(=O)O)ccc2[nH]1` came in with a melting point greater than 300 °C. In turn, `CS(=O)(=O)c1ccc(-c2cnn(CC(=O)c3csc4ccccc34)c(=O)c2-c2ccc(F)cc2)cc1` registered a melting point of 183 to 184 °C. In turn, `CCOC(=O)c1ccc(NCC=Cc2ccccc2)cc1` had a melting point of 123 to 131 °C. The compound `COC(=O)C#CC(=O)c1ccc(C)cc1` returned a melting point of 44 to 47 °C. In turn, `COc1ccc(CCOc2cccc(-c3cccc(C(N)=O)c3)n2)cc1OC` came in with a melting point of 141 to 142 °C. With `O=C1Nc2cc(CN3CC=C(c4ccc(Cl)cc4)CC3)cnc2N2CCC[C@@H]12`, the melting point fell in the range of 234 to 235 °C.

Regarding `CC(CCCOc1ccc(C2=C(c3ccccc3)CCCc3cc(O)ccc32)cc1)S(=O)(=O)Cc1ccco1` (configuration not stated), the melting point worked out at 168 °C. `CCCCCCCCCCCCCCSCC(O)CNCCO` (configuration not stated) gave a melting point of 71.4 to 73.2 °C.

In turn, `CC(C)(CCCCCNS(=O)(=O)c1ccc(Cl)cc1)C(=O)O` showed a melting point of 132 to 133 °C. `CCCC(C)(C)C(O)C(c1cccc(Cl)c1)n1cnc(C)c1` (configuration not stated) came in with a melting point of 121 to 122 °C.

On to `CC(C)(C)OC(=O)Nc1cc(CO)c(I)cc1[N+](=O)[O-]`, for which the melting point is greater than 250 °C. As for `CC(C)(C)c1cc(CCc2ccccc2NC(=O)NC2CCN(Cc3ccc(C(F)(F)F)cc3C(F)(F)F)CC2)cc(C(C)(C)C)c1O`, the figure is 156 to 157 °C; as for `CCOC(=O)c1cc(NC(=O)C(CS)Cc2ccc(Cl)cc2)c[nH]1` (configuration not stated), 140 to 143 °C; as for `CC(=O)Nc1ccc(C#Cc2c(F)c(F)nc(F)c2F)cc1`, 189 to 190 °C. Consider `CC/C(=C\CCC(O)(CC)CC)c1csc(COc2ccc(CO)c(CO)c2)c1`, for which the melting point was 73 to 74 °C. `CCn1cc(C(=O)O)c(=O)c2cc(Cl)c(N3CCOCC3)cc21` yielded a melting point of 266 °C.

The compound `COC(=O)Cc1sc(=O)[nH]c1COc1ccccc1` had a melting point of 103 °C. For `CON(C)C(=O)c1ccc(-n2ccnc2)nc1`, the melting point fell in the range of 69 to 70 °C. In the case of `O=Cc1nc(C(Cl)Cl)cnc1N1C(=O)c2ccccc2C1=O`, the melting point lay in the range of 145 to 146 °C. `CSc1ccc2cc(Nc3ccc(O)cc3)ccc2c1` gave a melting point of 127 to 128 °C. In the case of `Cn1ncc(C=O)c1-c1cccnc1`, the melting point was in the range of 118 to 119 °C. In turn, `O=C(O)c1cc(-c2ccccc2F)ns1` registered a melting point of 191 to 192 °C.

In turn, `COc1ccc(-c2c3ccccc3cc3sc4ccccc4c23)cc1I` showed a melting point of 274 to 275 °C.

The compound `Oc1ccc(Nc2ncc3ncc(-c4cccc(O)c4)cc3n2)cc1` showed a melting point greater than 268 °C. In turn, `CC(C)N(CCC(c1ccccc1)c1cc(CO)ccc1OCc1ccccc1)C(C)C` (configuration not stated) showed a melting point of 86.4 °C.

`CN1C(C)(C)CC(OC(=O)NNC(=O)C(=O)NC2CC(C)(C)NC(C)(C)C2)CC1(C)C` returned a melting point of 165 to 170 °C. For `CCCCN(CCCC)c1ccc(C=Cc2ccc(C=CC3=C(C#N)C(=C(C#N)C#N)OC3(C)C(F)(F)F)cc2)c(OC)c1` (configuration not stated), the melting point lay within 175 to 177 °C. Take `c1ccc(-c2ccc(Cc3ccco3)[nH]2)cc1`: the melting point lay within 79 to 80 °C. On to `N#Cc1ccc(Oc2ccc([N+](=O)[O-])c(Oc3ccccc3)c2Cl)cc1`, for which the melting point lay within 140 to 142 °C. On to `CC(C)(C)C(=O)Nc1ccccn1`, for which the melting point fell in the range of 74 to 76 °C.

As to `Cn1ccnc1Sc1ccc(Nc2c(C#N)cnc3cc(/C=C/CO)ccc23)cc1Cl`, the melting point fell in the range of 220 to 240 °C. Then `Cc1cc(C(=O)N2Cc3cccn3Cc3ccccc32)ccc1I`, with 152 to 153 °C; and `CCOC(=O)c1sc(SC)c2c1CCc1sc(-c3ccccc3)nc1-2`, with 153 to 154 °C; and `CCCCc1cc(OCc2ccc(C#N)cc2)c2ccccc2n1`, with 74 °C.

As for `CC(C)n1c(C=O)c(-c2ccc(F)cc2)c(-c2ccccc2)c1C(=O)Nc1cccc(C(=O)N(C)C)c1`, the melting point lay within 202 to 203 °C. Compound `CC(C)(C)OC(=O)NC[C@H](O)[C@@H](O)[C@H](O)[C@H](O)CO` came in with a melting point of 81 to 83 °C. In turn, `COc1cc2c3c(c1)c(Cl)c(C(=O)N1CCc4ccccc41)c(=O)n3CCO2` registered a melting point of 158 to 160 °C. `CCOC(=O)C(=NOCCI)c1csc(NC(c2ccccc2)(c2ccccc2)c2ccccc2)n1` returned a melting point of 110 °C. Then `CCCC(=O)Nc1ccc(-c2ccncc2)cc1`, with 174 to 175 °C; and `CCn1c(Cl)nc2cc(C(F)(F)F)c(Cl)c(N)c21`, with 134 to 142 °C. As for `Oc1nc(-c2ccc3c(c2)CCO3)nc2ccccc12`, the figure is 289 to 294 °C. For `COc1ccc(C(=CC(=O)O)c2ccc(-c3ccccc3)cc2)cc1OC`, the melting point is 178 to 184 °C. `CCCc1c(OCC(=N)OCC)ccc(C(C)=O)c1O` showed a melting point of 50 to 52 °C.

Regarding `CCC1c2cccn2-c2ccc(F)cc2N1C(=O)c1ccc(OC)cc1` (configuration not stated), the melting point lay in the range of 39 to 42 °C. Then `CCCCCCN1C(=O)C(=CC(=O)O)SC1=Nc1ccccc1`, with 145 to 146 °C. Consider `FC(F)(F)c1nc2cc(Cl)c(Cl)cc2[nH]1`, for which the melting point was in the range of 225 to 230 °C.

Take `Cn1c2c(ccc1=O)C(NCCc1ccc(Cl)cc1Cl)CCC2` (configuration not stated): the melting point lay in the range of 102 to 103 °C. Then `CCCOc1cc2c(cc1OCCC)CCC(C(=O)N1CCN(C(=O)c3cc(OC)c(OC)c(OC)c3)CC1)=C2`, with 124 to 126 °C; and `CC(=O)c1ccc2c(c1)ncn2-c1cccc(-c2ccccn2)c1`, with 158 to 159 °C; and `NC(=O)CNCc1noc([C@H](CCCC2CCCCC2)CC(=O)NO)n1`, with 60 to 70 °C. Consider `COc1ccc(NS(=O)(=O)c2ccc(N3CCC(NC[C@H](O)COc4ccc(OCc5ccccc5)cc4)CC3)cc2)cc1OC`, for which the melting point lay in the range of 113 to 121 °C. The compound `COc1ccc(-c2nc3cccnc3[nH]2)cc1NS(=O)(=O)c1cccs1` gave a melting point of 252 to 254 °C. The compound `CCn1ncc2c(NN=C(C)C)c(C(N)=O)cnc21` had a melting point of 217 to 218 °C. As for `CN(C)C1CCc2[nH]c3ccc(O)cc3c2C1` (configuration not stated), the figure is 202 to 204 °C; as for `CSc1ccc2c(=O)cc(C(=O)N[C@H]3CCN(C(=O)c4cc(C(F)(F)F)cc(C(F)(F)F)c4)[C@H](Cc4ccc(Cl)cc4)C3)oc2c1`, 137 to 140 °C.
